Source: the NIST ThermoML archive (doi:10.1016/j.jct.2013.03.002)
± gives the expanded uncertainty stated by the source.

Conditions: Liquid; for Critical pressure: Direct measurement; for Critical temperature: Visual observation in an unstirred cell

| SMILES | Critical pressure | Critical temperature |
| --- | --- | --- |
| COC(C)(C)C [2-methoxy-2-methylpropane] | 3448 ± 30 kPa | 497 ± 2.4 K |
| C1CCCCC1 [cyclohexane] | 4110 ± 30 kPa | 554.1 ± 2.4 K |
| CCO [ethanol] | 6135 ± 30 kPa | 514.2 ± 2.4 K |
| CCCCCCC [heptane] | 2761 ± 30 kPa | 540 ± 2.4 K |

Continued, values first:

| Critical pressure | Critical temperature | SMILES |
| --- | --- | --- |
| 3030 ± 30 kPa | 507.9 ± 2.4 K | CCCCCC [hexane] |
| 8128 ± 30 kPa | 512.3 ± 2.4 K | CO [methanol] |
| 5172 ± 30 kPa | 537 ± 2.4 K | CCCO [propan-1-ol] |
